According to paper PMC10526274, “Epithelial-Immune Cell Crosstalk Determines the Activation of Immune Cells In Vitro by the Human Cathelicidin LL-37 at Low Physiological Concentrations” (Biomolecules, 2023):
Values joined by “and” are separate entries in the source; they are usually repeats but may differ in a detail not shown here. Identical values can stand only once.

Tested on: Caco-2/monocytes co-culture
Assay: Multiplex xMAP cytokine levels, Caco-2/monocytes co-culture stimulated with LL-37
Type: cell-based, human
Settings: monocytes/Caco-2 co-culture, 1 µM LL-37, 24 h, n=2
Method: Caco-2 cell line (ATCC HTB-37) was cultured in a humidified CO2-incubator (5% CO2, 37 °C) in the complete DMEM/F12 (1:1) medium (Gibco, Waltham, MA, USA) containing 10% fetal bovine serum (FBS, Gibco) and 1X antibiotic–antimycotic solution (Gibco). To stabilize the cell phenotype, Caco-2 cells have been subcultivated three times before seeding on the filter supports. Then, Caco-2 cells were seeded at a density of 2 × 10^5 cells/cm^2 onto 24-well Millicell cell culture inserts (PC, 0.4-μm pore size, 0.6 cm^2 surface area, cat. #PIHP01250) (Millipore, Burlington, MA, USA), precoated with 0.2% bovine gelatin (Sigma-Aldrich, Saint Louis, MO, USA). After seeding, Caco-2 cells were grown in the same complete medium with re-feeding every 2–3 days until polarization of the monolayer occurred. The functional polarity of the monolayers was developed when transepithelial electrical resistance (TEER) between the apical and basolateral surfaces of the monolayers reached […] as measured by the electrical resistance system Millicell-ERS Voltohmmeter (Millipore, Burlington, MA, USA). Grown cell monolayers were used in transport and cytokine production experiments between the 21st and 29th days.
Peripheral blood mononuclear cells (PBMCs) from a healthy donor were purchased from the American Type Culture Collection (ATCC PCS-800-011). Blood monocytes were isolated from PBMCs by plastic adhesion. Mature monocyte-derived dendritic cells (moDCs) were generated in vitro from peripheral blood monocytes, according to Nair et al.. Briefly, monocytes were cultured in a humidified CO2-incubator (5% CO2, 37 °C) in the complete RPMI-1640 medium (Gibco) with 10% FBS, antibiotics, and supplemented with a cytokine cocktail containing 500 U/mL rhIL-4 and 800 U/mL rhGM-CSF (both Sci-Store, Moscow, Russia). On the third day, the medium was replaced by the same fresh medium with FBS, antibiotics, and the cytokine cocktail. Induction of maturation of the immature monocyte-derived dendritic cells was performed on the 5th day by replacing the medium with the complete RPMI-1640 medium (Gibco) with 10% FBS and antibiotics, supplemented with a cytokine cocktail containing 500 U/mL rhIL-4, 800 U/mL rhGM-CSF (both Sci-Store, Moscow, Russia), and 100 U/mL rhTNF-α (Sigma-Aldrich), and subjected to subsequent incubation of the culture for 4 more days.
Primary blood monocytes, moDCs, and NKT cells were seeded in 600 µL of complete RPMI-1640 with 10% Human AB serum (Capricorn Scientific, Ebsdorfergrund, Germany) and supplemented with 1X antibiotic–antimycotic solution into the wells of 24-well plates at a density of 3–7 × 10^5 cells/well 24 h before the experiment. Then, 24 h later, the medium in each well was replaced by the same medium with 1 µM of LL-37 for the sample wells or fresh medium alone for the control wells, and the permeable inserts with the Caco-2 monolayer with TEER > 400 Ω × cm^2, containing 400 μL of the complete medium in their apical chamber, were immediately placed into the appropriate wells. Also, inserts with the Caco-2 monolayer were placed in cell-free wells of 24-well plates in the same complete RPMI-1640 medium with or without 1 µM of LL-37 as controls. Cells were kept in a CO2-incubator (5% CO2, 37 °C) for another 24 h. Then, culture medium from each well was collected, centrifuged, and frozen at −70 °C.
To quantitatively evaluate a broad spectrum of analytes secreted by human cell cultures at the protein level, multiplex xMAP technology was used. […]

In the case of “LL-37: the only human cathelicidin, host defense antimicrobial peptide of 37 a.a. residues, produced by solid-phase peptide synthesis”, the IL-2 level (control 1.07) is reported as 1.07 pg/mL, the FLT-3L level (control 1.18) is reported as 1.37 pg/mL and the IFNg level (control 1.33) is reported as 2.28 pg/mL. For the same substance, the IL-15 level (control 1.67) was 2.58 pg/mL, the IL-18 level (control 3.28) was 2.42 pg/mL and the TGF-a level (control 3.5) was 3.88 pg/mL. The GM-CSF level (control 3.75) was 18.58 pg/mL, the IL-4 level (control 6.54) was 8.01 pg/mL and the IL-9 level (control 6.65) was 8.94 pg/mL. The EGF level (control 8.06) was 10.26 pg/mL, the IFNa2 level (control 11.65) was 13.12 pg/mL and the IL-10 level (control 14.79, p = 0.0007) was 57.4 pg/mL and 57.47 pg/mL. For the same substance, the TNFb level (control 21.66, p = 0.015) was 30.56 pg/mL, the IL-1a level (control 22.02) was 53.04 pg/mL and the Fractalkine level (control 22.95) was 31.4 pg/mL. For the same substance, the MIP-1a level (control 27.72, p = 0.11) was 3622 pg/mL, the IL-1b level (control 29.14, p = 0.0072) was 104 pg/mL and 104.8 pg/mL and the “IL-12 (p40) level” value (control 34.49) was 56.57 pg/mL. It also gave a M-GSF level (control 35.52) of 157.86 pg/mL, an IL-1RA level (control 42.52) of 108.8 pg/mL and an IL-13 level (control 42.56) of 52.71 pg/mL. The FGF-2 level (control 48.6) was 52.5 pg/mL, the IL-22 level (control 48.87, p = 0.029) was 71 pg/mL and 71.9 pg/mL and the MIP-1b level (control 49.37, p = 0.017) was >3455↑ pg/ml. For the same substance, the TNFa level (control 87.19, p = 0.019) was 306 pg/mL and 306.44 pg/mL, the IL-27 level (control 88.48) was 119.16 pg/mL and the sCD40L level (control 92.05) was 88.6 pg/mL. It also gave a G-CSF level (control 181.87, p = 0.012) of 1150 pg/mL, an IP-10 level (control 191.78) of 3346 pg/mL and a PDGF-AA level (control 243.05) of 189.29 pg/mL. The MIG level (control 306.48, p = 0.0018) was 959 pg/mL and 959.23 pg/mL, the PDGF-AB/BB level (control 692.27) was 713.51 pg/mL and the MCP-3 level (control 707.64) was 4706 pg/mL. The VEGFa level (control 1586) was 2190 pg/mL, the IL-6 level (control 2266) was 5678 pg/mL and the MDC level (control 4385) was 1264 pg/mL. The GROa level (control 4827) was 4862 pg/mL, the MCP-1 level (control 12186) was 5364 pg/mL and the IL-8 level (control 15625) was 19839 pg/mL. For the same substance, the IL-7 level (control <0.30) was <0.30↓ pg/ml, the IL-5 level (control <0.35) was <0.35↓ pg/ml and the IL-3 level (control <0.55) was <0.55↓ pg/ml. For the same substance, the RANTES level (control <0.64) was 729.59 pg/mL, the IL-17A level (control <0.70) was 2.63 pg/mL and the “IL-12 (p70) level” value (control <1.71) was 2.3 pg/mL. For the same substance, the Eotaxin level (control <2.91) was <2.91↓ pg/ml, the IL-17F level (control <12.19) was <12.19↓ pg/ml and the IL-17E/IL-25 level (control <19.43) was <19.43↓ pg/ml.
